Experimental data from the NIST ThermoML archive (doi:10.1016/j.jct.2015.06.005).
± gives the expanded uncertainty stated by the source.

What was measured:
[1] = xn = mol fraction of the nth substance listed; settings: 100 kPa, Liquid, x1 = 1; for speed of sound: Frequency=3 MHz, Sing-around technique in a fixed-path interferometer; for mass density: Vibrating tube method
[2] = refractive index (Na D-line) (dimensionless); xn = mol fraction of the nth substance listed; settings: 100 kPa, Liquid, Standard Abbe refractometry, x1 = 1
[3] = 100 kPa, Liquid; for speed of sound: Frequency=3 MHz, Sing-around technique in a fixed-path interferometer; for mass density: Vibrating tube method
[4] = refractive index (Na D-line) (dimensionless); settings: 100 kPa, Liquid, Standard Abbe refractometry

CCCCn1cc[n+](C)c1.F[B-](F)(F)F [1-butyl-3-methylimidazolium tetrafluoroborate] + CCCCCCCCN1CCCC1=O
Settings | mass density, [1] [kg/m3] | refractive index, [2] | speed of sound, [1] [m/s]
298.15 K | 1198.78 ± 1.1 | 1.42058 ± 0.00087 | 1565.1 ± 6.1
303.15 K | 1195.18 ± 1.1 | 1.41913 ± 0.00087 | 1553.2 ± 6.1
308.15 K | 1191.6 ± 1.1 | 1.41764 ± 0.00087 | 1541.3 ± 6.1
313.15 K | 1188.04 ± 1.1 | 1.41621 ± 0.00087 | 1529.7 ± 6.1
318.15 K | 1184.5 ± 1.1 | 1.41472 ± 0.00087 | 1518.2 ± 6.1
323.15 K | 1180.98 ± 1.1 | 1.4133 ± 0.00087 | 1506.8 ± 6.1

CCCCCCCCN1CCCC1=O [N-octyl-2-pyrrolidone]
Settings | mass density, [3] [kg/m3] | refractive index, [4] | speed of sound, [3] [m/s]
298.15 K | 918.45 ± 1 | 1.46346 ± 0.00086 | 1450.2 ± 6.1
303.15 K | 914.8 ± 1 | 1.46152 ± 0.00086 | 1432.6 ± 6.1
308.15 K | 911.14 ± 1 | 1.45955 ± 0.00086 | 1415.3 ± 6.1
313.15 K | 907.49 ± 1 | 1.45761 ± 0.00086 | 1398 ± 6.1
318.15 K | 903.83 ± 1 | 1.45564 ± 0.00086 | 1380.9 ± 6.1
323.15 K | 900.17 ± 1 | 1.45367 ± 0.00086 | 1364 ± 6.1
